In ChEMBL document CHEMBL1201862, “PubChem BioAssay data set” (2004):
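Values below derive from 48-hour exposures of cells grown in 96-well plates, with endpoints linearly interpolated between the two concentrations bracketing the appropriate inhibition level. The concentration for 50% growth inhibition is given as GI50.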 The source made the active and inactive calls. No stated cut-off is given here; in the data, active = GI50 up to about 1.1 µM and inactive = higher.

Columns and labels:
Assay in all cases: NCI tumour cell line growth inhibition, 48 h
[1] = tested on: MCF7
[2] = tested on: NCI/ADR-RES
[3] = tested on: T47D
[4] = tested on: DMS-114
[5] = tested on: OVCAR-4
[6] = tested on: XF498
[7] = tested on: LXFL 529

Structure (SMILES)	GI50 [1]	GI50 [2]	GI50 [3]	GI50 [4]	GI50 [5]	GI50 [6]	GI50 [7]
C=CCNC(=O)CN(CC(=O)OC)C1CCCCC1N(CC(=O)OC)CC(=O)OC (stereo not drawn)	> 100 µM (inactive)	> 100 µM (inactive)	> 100 µM (inactive)	–	–	–	–
CC1OC(CO)(n2cnc3c(N)ncnc32)C(O)C1O (stereo not drawn)	> 100 µM (inactive)	> 100 µM (inactive)	–	> 100 µM (inactive)	> 100 µM (inactive)	> 100 µM (inactive)	–
O=C1C(Cl)N(c2ccccc2Cl)C1c1c[nH]c2ccccc12 (stereo not drawn)	–	–	–	> 100 µM (inactive)	> 100 µM (inactive)	> 100 µM (inactive)	–
C=C(/C=C/C=C(\C)CCC=C(C)C)[C@@H]1CC[C@]2([C@H](CCCO)/C(=C(/C)C=O)CC[C@]2(C)O)[C@@H]1O	–	–	–	–	–	18.7 µM (inactive)	19.1 µM (inactive)
CNC(=O)N(C)COC	–	–	–	> 100 µM (inactive)	> 100 µM (inactive)	> 100 µM (inactive)	> 100 µM (inactive)
O=C(O)CN1CCN(CC(=O)O)CCN(CC(=O)O)CC1	5.65 µM (inactive)	–	> 100 µM (inactive)	–	34.1 µM (inactive)	–	–
CC(C)CNC1=NCC(C)S1 (stereo not drawn)	> 100 µM (inactive)	–	> 100 µM (inactive)	–	–	–	–
CO[C@H]1ON=C(c2c(C)cc(C)cc2C)[C@@H]1C1(c2ccccc2)ON=C(c2c(C)cc(C)cc2C)O1 (stereo partly drawn)	–	–	–	–	–	–	> 100 µM (inactive)
